Assay results: paper PMC10610016, “New Hybrid Compounds Incorporating Natural Products as Multifunctional Agents against Alzheimer’s Disease” (Pharmaceutics, 2023)
Values joined by “and” are separate entries in the source; they are usually repeats but may differ in a detail not shown here. Identical values can stand only once. Like-named read-outs stand apart in the source and are kept apart here. Each block holds one molecule with its values, some of them ahead of it.

Tests used:
[1] = UV–Vis metal binding study, Cu2+ (mole ratio method); format: physicochemical; details: for stoichiometry for the Cu2+–ligand complex (molar fraction analysis): ligand 20 µM, Cu2+ 0 to 80 µM; for shift in UV spectrum in the presence of Cu2+ (first screening): ligand 20 μM, Cu2+ 80 µM, MeOH
Description: (§1) The synthesized compounds were tested for their metal chelating effect through spectroscopic measurements. The UV–Vis absorbance of compounds was recorded in the absence and presence of metal ions using a UV–Vis spectrometer (a SPECTROstarNano (220–1000 nm), Ortenberg, Germany. The experiment was performed in 96-well plates and each experiment was made in triplicates. A fixed amount of investigated ligand (20 μM) solubilized in MeOH was mixed with increasing concentration of Cu^2+ (CuCl2), Fe^2+ (FeSO4) and Zn^2+ (ZnCl2) from 0 to 80 μM and incubated for 30 min at room temperature (r.t.). The absorbance change was monitored at wavelengths ranging from 220 to 700 nm. The stoichiometry of studied compounds for Cu^2+ and Fe^2+ complexes was determined by employing the mole ratio method.

Aβ1-40 = target: T1, Aβ1-40 (Homo sapiens, UniProt P05067); test: Thioflavin T (ThT) fluorescence assay of Aβ1-40 fibril formation; format: biochemical; details: for inhibition of Aβ1-40 fibril formation (ThT): Aβ1-40 10 µM
T1 construct: Aβ1-40 was obtained from Bachem (Bubendorf, Switzerland); purchased Bachem (Bubendorf, Switzerland)
Description: Aβ1-40 was obtained from Bachem (Bubendorf, Switzerland). To remove preformed aggregates, it was dissolved during 15–20 min at r.t. in 1% NH4OH to give a concentration of 2 mg/mL, followed by immediate lyophilisation. The Aβ1-40 peptide was then dissolved in an aqueous 1% ammonia solution to a concentration of 1 mM and then, just prior to use, was diluted to 0.2 mM with 10 mM Tris-HCl, 100 mM NaCl buffer (pH 7.4). Compounds (2a–c) were dissolved in DMSO (4.9 mM), while TTR in phosphate buffer 20 mM buffer (pH 7.4) at 1 mM concentration. ThT fluorescence was measured to evaluate the development of Aβ1-40 fibrils over time using a fluorescence plate reader (Vantastar, BMG lab-tech, Ortenberg, Germany) with standard 96-well black microliter plates. The ThT fluorescence intensity was recorded by using excitation/emission settings at 440−15 nm/480−15nm for 21 h and applying a double orbital shaking of 10 s before the first cycle. Experiments were triggered by adding Aβ1-40 achieving a final concentration of 10 μM into a mixture containing 40 μM ThT in 10 mM Tris-HCl, 100 mM NaCl buffer (pH 7.4) with and without the studied compounds (10 μM) at 25 °C, and with and without CuCl2 (10 µM). When TTR was assessed in the presence of compound 2a, the ratio between TTR and 2a was adjusted to 1:2 (TTR:2a) in order to let the compound interacting with both hydrophobic pockets. A time of 3 h of incubation was employed before adding the solution into the well. The F reduction is depicted as the intensity of experimental fluorescence plateau observed with the studied compound relative to the value obtained without the compound and is quantified as the following percentage: ((F Aβ1-40+compound − F Aβ1-40)/(F Aβ1-40)) × 100. The data of fluorescence intensity come from at least two independent experiments, where each condition has been performed in duplicate, in the case of the presence of TTR (10 µM), or triplicate, in the case of the absence of TTR (10 µM), respectively. The values are given as averaged percentage ± SEM.

[2] = UV–Vis metal binding study, Fe2+ (mole ratio method); format: physicochemical
Description: as §1

Human Plasma TTR = target: T2, Human Plasma TTR (Homo sapiens, UniProt P02766); test: ANS competitive binding (displacement) assay; details: TTR 8 µM, ANS 16 µM
T2 construct: purchased Merck Millipore, Molsheim, France; host or cells: human plasma
Description: The binding of ANS (8-anilino-1-naphthalenesulfonic acid), Sigma-Aldrich (St. Louis, MO, USA) and its displacement by the three selected compounds 2a–c were studied using Human Plasma TTR (Merck Millipore, Molsheim, France) according to the protocol previously described. Briefly, TTR (8 µM) was incubated with ANS (16 µM) at r.t. for 15 min in 96-well plates. Then, compounds 2a–c at concentrations of 100 µM were added. After 10 min, the fluorescent emission spectra (400–540 nm) were recorded exciting at 280 nm using Molecular Devices SpectraMax Gemini XPS plate reader, (San Jose, CA, USA). For compounds 2a, the IC50 was calculated and value was expressed as the mean ± SEM of the triplicate. All experiments were made in triplicate and, the fluorescence increases of ANS bound to TTR solution compared to its control without TTR, and TTR alone, in phosphate buffer, were used as a control.

ABTS assay = format: biochemical; details: for radical scavenger / antioxidant activity, ABTS: compound 100 µM; for EC50 / TEAC, ABTS: mean ± SEM of three independent experiments
Description: The ABTS assay was performed according to the methods reported in literature. Briefly, 7 mM of ABTS was mixed with 2.45 mM of K2S2O8 solution, ratio 1:1, in 10 mM phosphate buffer (pH 7.4). The mixture was incubated in a dark box at r.t. for 12 h, then the stock solution was diluted until the absorbance was 0.70 ± 0.02 at 734 nm.
In a 96-well plate, 190 µL ABTS working solution and 10 µL sample solution (compounds 2a–c, 3a–c at concentration of 100 μM) were mixed and the absorbance was measured (734 nm) using a SPECTROstarNano (220–1000 nm) UV–Vis spectrophotometer, Ortenberg, Germany. Then, for compounds 2a–c the EC50 was calculated and the values were expressed in TEAC equivalents. Each concentration was tested in triplicate and the EC50 was reported as the mean ± SEM of three independent experiments.

[3] = DPPH radical scavenging assay; format: biochemical; details: for %AA (percentage of antioxidant activity), DPPH: compound 100 µM, DPPH 60 µM in MeOH, 1 h; for EC50 / TEAC (Trolox equivalent antioxidant capacity), DPPH: mean ± SEM of three independent experiments
Description: The DPPH assay was carried out in a 96-microwell plate according to a previously described protocol. In brief, DPPH solution (60 µM in MeOH) was added to studied compounds or MeOH as the control. The 96-microwell plate was incubated (in the dark, at r.t. for 1 h) and the absorbance values were read at 517 nm by a SPECTROstarNano (220–1000 nm) UV–Vis spectrophotometer, Ortenberg, Germany. During the first screening, all compounds were tested ad 100 µM, then for compounds 2a–c the EC50 (effective concentration), the concentration of substrate that causes a 50% reduction in the DPPH colour, was calculated.
All experiments were made in triplicate. The percentage of the antioxidant activity (%AA) of the compounds was determined according to Equation (1):%AA = ((AbsDPPH − Abssample)/AbsDPPH) × 100(1)
AbsDPPH is the absorbance of DPPH solution, and Abssample is the absorbance of DPPH solution containing the tested compound.
Each concentration was tested in triplicate and the EC50 value was reported as the mean ± the standard error of the mean (SEM) of three independent experiments.

[4] = Colorimetric Cu2+ chelation with pyrocatechol violet (PV); format: physicochemical; details: compound 200 µM, CuSO4 200 µM, PV 200 µM
Description: (§2) Due to a non-measurable UV absorbance for compounds 4a and 5c, a different protocol using pyrocatechol violet (PV) was applied. The compounds (200 µM) incubated for 10 min with CuSO4 (200 µM), after 200 µM PV was added and the plate was incubated at 25 °C for 20 min. The absorption spectra were recorded. The same protocol was used for Fe^2+ (FeSO4) in presence of ferrozine.

[5] = Colorimetric Fe2+ chelation with ferrozine; format: physicochemical; details: FeSO4, ferrozine
Description: as §2

[6] = set-up: method as in PMID 31055242; details: literature value; cited from earlier work
[7] = set-up: method as in PMID 31055242; details: literature value; cited from earlier work; remark: listed apart in the source

T1 sequence (P05067 672-711 limits assumed): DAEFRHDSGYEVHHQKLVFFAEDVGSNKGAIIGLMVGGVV

Structure (SMILES): O=C(C=Cc1ccccc1)NOCc1ccccc1C(F)(F)F [Compound 1a, N-((2-(trifluoromethyl)benzyl)oxy)cinnamamide]
melting point: 91 to 93 °C
stoichiometry for the Cu2+–ligand complex (molar fraction analysis) [1]: 1.0
shift in UV spectrum in the presence of Cu2+ (first screening) [1]: significant shift

Structure (SMILES): O=C(C=Cc1ccccc1)NOCc1cccc(C(F)(F)F)c1 [Compound 1b, N-((3-(trifluoromethyl)benzyl)oxy)cinnamamide]
melting point: 91 to 93 °C

Structure (SMILES): O=C(C=Cc1ccccc1)NOCc1ccc(C(F)(F)F)cc1 [Compound 1c, N-((4(trifluoromethyl)benzyl)oxy)cinnamamide]
melting point: 148 to 150 °C

Structure (SMILES): O=C(/C=C/c1ccc(O)c(O)c1)NOCc1ccccc1C(F)(F)F [Compound 2a, (E)-3-(3,4-dihydroxyphenyl)-N-((2-(trifluoromethyl)benzyl)oxy)acrylamide]
effect on Aβ1-40 fibril formation (ThT) (Aβ1-40; TTR 10 µM pre-incubated with 2a 20 µM (1:2 TTR/2a), without Cu2+): slight positive effect
inhibition of Aβ1-40 fibril formation (ThT) (Aβ1-40; with Cu2+ 10 µM, compound 10 µM): completely inhibition of the fibril formation
inhibition of Aβ1-40 fibril formation (ThT) (Aβ1-40; without Cu2+, compound 10 µM (1:1 ratio)): discrete inhibitory activity
molar fraction of the 2a–Fe2+ complex ([2]; Fe2+ 0 to 30 µM, absorbance changes at 330 nm): 1
change in UV spectrum when Fe2+ was added (first screening) ([2]; ligand 20 μM, Fe2+ 80 µM, MeOH): weak change
melting point: 80 to 82 °C
IC50 (Human Plasma TTR; mean ± SEM of triplicate): 31.9 µM
displacement of ANS from TTR (Human Plasma TTR; compound 100 µM): 71%
radical scavenger / antioxidant activity, ABTS (ABTS assay): 99.1%
EC50 (ABTS assay): 9.9 ± 0.2 µM
TEAC, ABTS (ABTS assay): 11.3 ± 0.1 µM
%AA (percentage of antioxidant activity), DPPH [3]: 95%
EC50 [3]: 8.9 ± 0.2 µM
TEAC (Trolox equivalent antioxidant capacity), DPPH [3]: 12.4 ± 0.4 µM
shift in UV spectrum in the presence of Cu2+ (first screening) [1]: significant shift

Structure (SMILES): O=C(/C=C/c1ccc(O)c(O)c1)NOCc1ccc(C(F)(F)F)cc1 [Compound 2c]
melting point: 188 to 190 °C
radical scavenger / antioxidant activity, ABTS (ABTS assay): 97.3%
EC50 (ABTS assay): 22.9 ± 0.5 µM
TEAC, ABTS (ABTS assay): 11.8 ± 0.02 µM
%AA (percentage of antioxidant activity), DPPH [3]: 96% and 58%
EC50 [3]: 6 ± 0.1 µM
TEAC (Trolox equivalent antioxidant capacity), DPPH [3]: 10.4 ± 0.4 µM

Structure (SMILES): O=C(/C=C/c1ccc(O)cc1O)NOCc1ccccc1C(F)(F)F [Compound 3a, (E)-3-(2,4-dihydroxyphenyl)-N-((2-(trifluoromethyl)benzyl)oxy)acrylamide]
melting point: 165 to 167 °C
radical scavenger / antioxidant activity, ABTS (ABTS assay): 68%
%AA (percentage of antioxidant activity), DPPH [3]: 59%
stoichiometry for the Cu2+–ligand complex (molar fraction analysis) [1]: around 2
shift in UV spectrum in the presence of Cu2+ (first screening) [1]: significant shift

Structure (SMILES): O=C(/C=C/c1ccc(O)cc1O)NOCc1cccc(C(F)(F)F)c1 [Compound 3b, (E)-3-(2,4-dihydroxyphenyl)-N-((3-(trifluoromethyl)benzyl)oxy)acrylamide]
melting point: 157 to 158 °C
radical scavenger / antioxidant activity, ABTS (ABTS assay): 67%
%AA (percentage of antioxidant activity), DPPH [3]: 60%

Structure (SMILES): O=C(CCCC[C@@H]1CCSS1)NOCc1ccccc1C(F)(F)F [Compound 5a, (R)-5-(1,2-dithiolan-3-yl)-N-((2-(trifluoromethyl)benzyl)oxy)pentanamide]
interaction with Cu2+, colorimetric method with PV [4]: slight shift
interaction with Fe2+, colorimetric method with ferrozine [5]: No interaction

Structure (SMILES): O=C(O)/C=C/c1ccc(O)c(O)c1 [caffeic acid]
EC50 [6]: 10.9 µM
EC50 [7]: 13.3 µM

The next lines start with results.

melting point: 176 to 178 °C
Structure (SMILES): O=C(/C=C/c1ccc(O)cc1O)NOCc1ccc(C(F)(F)F)cc1 [Compound 3c, (E)-3-(2,4-dihydroxyphenyl)-N-((4-(trifluoromethyl)benzyl)oxy)acrylamide]
radical scavenger / antioxidant activity, ABTS (ABTS assay): 65%

melting point: 73 to 75 °C
Structure (SMILES): CCCC(CCC)C(=O)NOCc1ccccc1C(F)(F)F [Compound 4a, 2-propyl-N-((2-(trifluoromethyl)benzyl)oxy)pentanamide]
interaction with Cu2+, colorimetric method with PV [4]: slight shift
interaction with Fe2+, colorimetric method with ferrozine [5]: No interaction

melting point: 74 to 76 °C
Structure (SMILES): CCCC(CCC)C(=O)NOCc1cccc(C(F)(F)F)c1 [Compound 4b, 2-propyl-N-((3-(trifluoromethyl)benzyl)oxy)pentanamide]

melting point: 78 to 80 °C
Structure (SMILES): CCCC(CCC)C(=O)NOCc1ccc(C(F)(F)F)cc1 [Compound 4c, 2-propyl-N-((4-(trifluoromethyl)benzyl)oxy)pentanamide]
